Reference: patent US20240325521A1, “IONIZABLE LIPID COMPOUND FOR NUCLEIC ACID DELIVERY AND LNP COMPOSITION THEREOF” (priority 2021, published 2024)

Experiments:
[1] = Detection of novel coronavirus LNP-mRNA vaccine after encapsulation with different cationic lipids (encapsulation efficiency, particle size, PDI, Zeta potential); type: physicochemical; conditions: compared with control cationic lipids III and IV
Hep3B cells = type: cell-based; conditions: compared with cationic lipids III and IV
[2] = 25° C., up to 4 weeks; compared with cationic lipids III and IV

Row | SMILES | encapsulation effect on mRNA antigen [1] | in-vitro transfection efficiency (Hep3B cells) | stability of LNP-mRNAs prepared by the cationic lipid [2]
1 | CCCCCCCCC(CCCCCC)COC(=O)OCCCCCCN(CCCCO)CCCCCCOC(=O)OCC(CCCCCC)CCCCCCCC (stereo not drawn) [Compound 1] | better encapsulation effect | better | better
2 | CCCCCCCCCCCOC(=O)OCCCCCN(CCO)CCCCCCCOC(=O)OC(CCCCCCCC)CCCCCCCC [Compound 2] | better encapsulation effect | better | better
